In patent EP0588317A1 (priority 1992, dated 1994):
Where two headings read alike, the source gives them in different places.

Tests used:
[1] = solubility in soybean oil; type: physicochemical
Excerpt: The oil phase component used for preparing fat emulsions (or lipid emulsions) may be any of those conventionally used for preparing fat emulsions (or lipid emulsions), including vegetable oils such as soybean oil, cottonseed oil, synthetic triglycerides such as Panasate 800, Panasate 810 (trade name; manufactured by Nippon Yushi), squalene, eicosapentaenoic acid, azone, and the like. For preparing fat emulsions (or lipid emulsions), high solubility in these oil components is required for substance to be fat-emulsified (or lipid-emulsified). The compound of the present invention has a high solubility in these oil components, for example, 300 mg/ml or more in soybean oil at 40°C. The fat emulsions (or lipid emulsions) can be prepared by dissolving the compound of the present invention in soybean oil, Panasate, etc., adding lecithin to the solution, crude-emulsifying the mixture with a homomixer, etc., and then fine-emulsifying with a nanomizer under high pressure.

colon 26 cells = test: anti-tumor activity of fat emulsion given intravenously to mice inoculated with colon 26 cells; type: in vivo; details: fat emulsions, 14 days, dose per day 50 mg/kg
[2] = test system: established cell line derived from mice; details: at the same molar concentration, in vitro, versus 5-fluorouracil; cited from earlier work
[3] = versus 5-fluorouracil; cited from earlier work

## CCCCC/C=C\C/C=C\CCCCCCCC(=O)OCn1c(=O)c(F)cn([C@H]2C[C@H](OC(C)=O)[C@@H](COC(C)=O)O2)c1=O [Example 3, 3',5'-O-diacetyl-3-linolyloxymethyl-2'-deoxy-5-fluorouridine]
[1]; soybean oil, 40 °C, oil or lipid; read-out: solubility of this compound in soybean oil
  solubility: > 300 mg/mL

## CCCCCCC(=O)OCn1c(=O)c(F)cn([C@H]2C[C@H](OC(=O)CCC)[C@@H](COC(=O)CCC)O2)c1=O [Example 4]
Colon 26 cells; male mice inoculated with colon 26 cells in the inguinal region
  growth inhibiting activity: more than 90%
Colon 26 cells; male mice inoculated with colon 26 cells
  body weight: without decrease of body weight
[1]; 40 °C, oil or lipid; soybean oil; read-out: solubility of this compound in soybean oil
  solubility: > 300 mg/mL

## CCCCC/C=C\C/C=C\CCCCCCCC(=O)OCn1c(=O)c(F)cn([C@H]2C[C@H](OC(=O)Oc3ccccc3)[C@@H](COC(=O)Oc3ccccc3)O2)c1=O [Example 15, 3',5'-O-diphenoxycarbonyl-3-linolyloxymethyl-2'-deoxy-5-fluorouridine]
[1]
  solubility of this compound in soybean: 150 mg/0.5 ml

## CCCCC/C=C\C/C=C\CCCCCCCC(=O)OCn1c(=O)c(F)cn([C@H]2C[C@H](OC(=O)Oc3ccc(OC)cc3)[C@@H](COC(=O)Oc3ccc(OC)cc3)O2)c1=O [Example 16, 3',5'-O-di(4-methoxyphenoxy-carbonyl)-3-linolyloxymethyl-2'-deoxy-5-fluorouridine]
[1]
  solubility of this compound in soybean: 150 mg/0.5 ml

## CCCCC/C=C\C/C=C\CCCCCCCC(=O)OCn1c(=O)c(F)cn([C@@H]2O[C@H](COC(=O)CCC)[C@@H](OC(=O)CCC)[C@H]2OC(=O)CCC)c1=O [Example 19, 2',3',5'-O-tri-n-butyryl-3-linolyloxymethyl-5-fluorouridine]
[1]
  solubility of this compound in soybean oil: > 300 mg/soybean oil 1 ml

## CCCCCCC(=O)OCn1c(=O)c(F)cn([C@@H]2O[C@H](COC(=O)CCC)[C@@H](OC(=O)CCC)[C@H]2OC(=O)CCC)c1=O [Example 20, 2',3',5'-O-tri-n-butyryl-3-n-heptanoyloxymethyl-5-fluorouridine]
[1]
  solubility of this compound in soybean oil: > 300 mg/soybean oil 1 ml

## O=c1[nH]c(=O)n([C@H]2C[C@H](O)[C@@H](CO)O2)cc1F [FdUrd, 2'-Deoxy-5-fluorouridine]
[2]
  cancer inhibitory activity relative to 5-fluorouracil: more than 100 times
[3]
  in vivo advantage over 5-fluorouracil: no advantage over 5-fluorouracil
